From paper PMC11702208 (RSC Advances, 2025)
“And” between values parts separate entries of the source, which are not always exact repeats. Equal values may be shown once. Read-outs that look alike come from different tables or passages of the source.

Key:
[1] = tested on: MOLT-4; test: NCI cytotoxicity screen; format: cell-based, human
[2] = tested on: EKVX; test: NCI cytotoxicity screen; format: cell-based, human
[3] = tested on: HOP-92; test: NCI cytotoxicity screen; format: cell-based, human
[4] = tested on: NCI-H23; test: NCI cytotoxicity screen; format: cell-based, human
[5] = tested on: NCI-H322M; test: NCI cytotoxicity screen; format: cell-based, human
[6] = tested on: NCI-H460; test: NCI cytotoxicity screen; format: cell-based, human; conditions: 10.0 μM one dose
[7] = tested on: NCI-H522; test: NCI cytotoxicity screen; format: cell-based, human; conditions: 10.0 μM one dose
[8] = tested on: HCT-116; test: NCI cytotoxicity screen; format: cell-based, human
[9] = tested on: HCT-15; test: NCI cytotoxicity screen; format: cell-based, human
[10] = tested on: KM12; test: NCI cytotoxicity screen; format: cell-based, human
[11] = tested on: SW-620; test: NCI cytotoxicity screen; format: cell-based, human
[12] = tested on: SF-295; test: NCI cytotoxicity screen; format: cell-based, human
[13] = tested on: SNB-19; test: NCI cytotoxicity screen; format: cell-based, human
[14] = tested on: SNB-75; test: NCI cytotoxicity screen; format: cell-based, human; conditions: 10.0 μM one dose
[15] = tested on: U251; test: NCI cytotoxicity screen; format: cell-based, human; conditions: U-251
[16] = tested on: LOX IMVI; test: NCI cytotoxicity screen; format: cell-based, human
[17] = tested on: MALME-3M; test: NCI cytotoxicity screen; format: cell-based, human
[18] = tested on: MDA-MB-435; test: NCI cytotoxicity screen; format: cell-based, human
[19] = tested on: SK-MEL-28; test: NCI cytotoxicity screen; format: cell-based, human
[20] = tested on: SK-MEL-5; test: NCI cytotoxicity screen; format: cell-based, human
[21] = tested on: UACC-257; test: NCI cytotoxicity screen; format: cell-based, human; conditions: 10.0 μM one dose
[22] = tested on: UACC-62; test: NCI cytotoxicity screen; format: cell-based, human
[23] = tested on: IGROV1; test: NCI cytotoxicity screen; format: cell-based, human
[24] = tested on: OVCAR-3; test: NCI cytotoxicity screen; format: cell-based, human
[25] = tested on: OVCAR-4; test: NCI cytotoxicity screen; format: cell-based, human
[26] = tested on: SK-OV-3; test: NCI cytotoxicity screen; format: cell-based, human; conditions: 10.0 μM one dose
[27] = tested on: ACHN; test: NCI cytotoxicity screen; format: cell-based, human
[28] = tested on: UO-31; test: NCI cytotoxicity screen; format: cell-based, human
[29] = tested on: MDA-MB-231/ATCC; test: NCI cytotoxicity screen; format: cell-based, human
[30] = tested on: BT-549; test: NCI cytotoxicity screen; format: cell-based, human
[31] = tested on: T-47D; test: NCI cytotoxicity screen; format: cell-based, human; conditions: 10.0 μM one dose; T-47D
[32] = tested on: MDA-MB-468; test: NCI cytotoxicity screen; format: cell-based, human
[33] = tested on: 59 cancer cell lines; test: NCI cytotoxicity screen, full panel; format: cell-based, human; conditions: for TGI MG_MID / GI50: full panel mean-graph midpoint; for GI50: read-out: GI50 MG_MID
[34] = tested on: NCI/ADR-RES; test: NCI cytotoxicity screen; format: cell-based, human; conditions: Homo sapiens, five-dose
[35] = tested on: Leukemia subpanel tumor cell lines; test: NCI cytotoxicity screen, subpanel; format: cell-based, human; conditions: subpanel value, Leukemia
[36] = tested on: Colon cancer subpanel tumor cell lines; test: NCI cytotoxicity screen, subpanel; format: cell-based, human; conditions: subpanel value, Colon cancer
[37] = tested on: CNS cancer subpanel tumor cell lines; test: NCI cytotoxicity screen, subpanel; format: cell-based, human; conditions: subpanel value, CNS cancer
[38] = tested on: Melanoma subpanel tumor cell lines; test: NCI cytotoxicity screen, subpanel; format: cell-based, human; conditions: subpanel value, Melanoma
[39] = tested on: Ovarian cancer subpanel tumor cell lines; test: NCI cytotoxicity screen, subpanel; format: cell-based, human; conditions: subpanel value, Ovarian cancer
[40] = tested on: Prostate cancer subpanel tumor cell lines; test: NCI cytotoxicity screen, subpanel; format: cell-based, human; conditions: subpanel value, Prostate cancer
[41] = tested on: Breast cancer subpanel tumor cell lines; test: NCI cytotoxicity screen, subpanel; format: cell-based, human; conditions: subpanel value, Breast cancer
[42] = tested on: HL-60(TB); test: cells; conditions: Homo sapiens
[43] = tested on: K-562; test: cells; conditions: Homo sapiens, K562

NS(=O)(=O)c1ccc(Cn2c(SCC(=O)NN=Cc3ccccc3O)nc3ccccc3c2=O)cc1 [Compound 6, 4-((2-((2-(2-(2-Hydroxybenzylidene)hydrazineyl)-2-oxoethyl)thio)-4-oxoquinazolin-3(4H)-yl)methyl)benzenesulfonamide]
GI % ([1]; 10.0 μM one dose): 80%
GI % ([2]; 10.0 μM one dose): 40%
GI % ([3]; 10.0 μM one dose): 46%
GI % ([4]; 10.0 μM one dose): 37%
GI % ([5]; 10.0 μM one dose): 53%
GI % [6]: 51%
GI % [7]: 101%
GI % ([8]; 10.0 μM one dose): 58%
GI % ([9]; 10.0 μM one dose): 25%
GI % ([10]; 10.0 μM one dose, KM-12): 61%
GI % ([11]; 10.0 μM one dose): 40%
GI % ([12]; 10.0 μM one dose): 35%
GI % ([13]; 10.0 μM one dose): 45%
GI % [14]: 15%
GI % ([15]; 10.0 μM one dose): 57%
GI % ([16]; 10.0 μM one dose): 84%
GI % ([17]; 10.0 μM one dose, MALME-3M): 41%
GI % ([18]; 10.0 μM one dose): 29%
GI % ([19]; 10.0 μM one dose): 43%
GI % ([20]; 10.0 μM one dose): 42%
GI % [21]: 30%
GI % ([22]; 10.0 μM one dose): 62%
GI % ([23]; 10.0 μM one dose, IGROV1): 38%
GI % ([24]; 10.0 μM one dose, IGROV-3): 87%
GI % ([25]; 10.0 μM one dose, IGROV-4): 60%
GI % [26]: 37%
GI % ([27]; 10.0 μM one dose): 28%
GI % ([28]; 10.0 μM one dose): 39%
GI % ([29]; 10.0 μM one dose, MDA-MB-231/ATCC): 70%
GI % ([30]; 10.0 μM one dose): 44%
GI % [31]: 67%
GI % ([32]; 10.0 μM one dose): 48%
MG% (mean growth percent) ([33]; 10.0 μM one dose, 59 cell lines): 55.2% and 55.22%

COc1cc2ncnc(Nc3ccc(F)c(Cl)c3)c2cc1OCCCN1CCOCC1 [Gefitinib, reference compound]
GI50 ([1]; Homo sapiens): 3.98 µM
GI50 ([2]; Homo sapiens): 0.005 µM
GI50 ([3]; Homo sapiens): 7.94 µM
GI50 ([4]; Homo sapiens): 15.8 µM
GI50 ([5]; Homo sapiens): 0.08 µM
GI50 ([8]; Homo sapiens): 7.94 µM
GI50 ([9]; Homo sapiens): 5.01 µM
GI50 ([10]; Homo sapiens, KM12): 7.94 µM
GI50 ([11]; Homo sapiens): 7.94 µM
GI50 ([12]; Homo sapiens): 1.99 µM
GI50 ([13]; Homo sapiens): 12.6 µM
GI50 ([15]; Homo sapiens): 10 µM
GI50 ([16]; Homo sapiens): 7.94 µM
GI50 ([17]; Homo sapiens, Malme-3M): 3.16 µM
GI50 ([18]; Homo sapiens): 3.16 µM
GI50 ([19]; Homo sapiens): 0.31 µM
GI50 ([20]; Homo sapiens): 3.98 µM
GI50 ([22]; Homo sapiens): 5.01 µM
GI50 ([23]; Homo sapiens, IGROV-1): 0.2 µM
GI50 ([24]; Homo sapiens, OVCAR-3): 5.01 µM
GI50 ([25]; Homo sapiens, OVCAR-4): 7.94 µM
GI50 [34]: 12.6 µM
GI50 ([27]; Homo sapiens): 0.2 µM
GI50 ([28]; Homo sapiens): 1.25 µM
GI50 ([29]; Homo sapiens, MDA-MB-231): 12.6 µM
GI50 ([30]; Homo sapiens): 7.94 µM
GI50 ([32]; Homo sapiens): 0.01 µM
GI50 ([35]; Homo sapiens): 2.6 µM
GI50 [35]: 2.56 µM
TGI [35]: 12.07 µM
GI50 ([36]; Homo sapiens): 5.2 µM
GI50 [36]: 5.23 µM
TGI [36]: 18.47 µM
GI50 ([37]; Homo sapiens): 5.6 µM
GI50 [37]: 5.64 µM
TGI [37]: 19.62 µM
GI50 ([38]; Homo sapiens): 3.7 µM
GI50 [38]: 3.68 µM
TGI [38]: 12.49 µM
GI50 ([39]; Homo sapiens): 3.3 µM
GI50 [39]: 3.05 µM
TGI [39]: 33.29 µM
GI50 ([40]; Homo sapiens): 3.3 µM
GI50 [40]: 3.29 µM
TGI [40]: 31.62 µM
GI50 ([41]; Homo sapiens): 4.7 µM
GI50 [41]: 4.67 µM
TGI [41]: 18.62 µM
CC50 ([33]; Homo sapiens, read-out: LC50 MG_MID, full panel mean-graph midpoint): 95.6 µM
TGI MG_MID [33]: 14.3 µM
TGI MG_MID ([33]; listed as gefitinib): 66.3 µM
GI50 [33]: 2.1 µM
GI50 ([33]; listed as gefitinib): 7.7 µM
GI50 [42]: 5.01 µM
GI50 [43]: 2.51 µM
